US20200268728A1, “DRUG TARGETING CANCER STEM CELL” (Sumitomo Dainippon Pharma Co., Ltd., priority 2016, published 2020)
pIC50: −log10 of the molar value.

What was measured:
HCT-116 cells = test: Test for inhibiting sphere-forming ability of cancer cells (Test Example 1); assay type: cell-based, human; conditions: Homo sapiens, 96 h, non-adherent serum-free sphere culture, 4 days, CellTiter-Glo, read-out: IC50 (μmol/L), Sphere IC50 value, concentration for 50% inhibition of cell proliferation
Method: The reliable methods established for measuring the self-renewal ability of cells which is one of the CSC's properties include a method for measuring the sphere-forming ability of cancer cells in non-adherent condition in the absence of serum (Cancer Res 65, 5506-5511 (2005)). HCT-116 cells were available from the American Type Culture Collection (ATCC). HCT-116 cells were cultured at 37° C. and 5% CO2 using the McCoy's 5a medium containing 10% fetal bovine serum (FBS), 100 U/ml penicillin, and 100 μg/ml streptomycin. HCT-116 cells were seeded in a 384 Well Black Clear Bottom Ultra-Low Attachment Microplate (Corning Cat. No. 3827) in an amount of 350-800 cells/well using the DMEM/F12 medium containing 2% B27 supplement (GIBCO), 20 ng/mL epidermal growth factor (EGF) (peprotech), 10 ng/mL basic fibroblast growth factor (bFGF) (peprotech), 5 μg/mL insulin (Sigma), and 1% penicillin/streptomycin. The test compounds were added into each well to adjust the final concentration of DMSO to 0.1%, and the cells were cultured for 4 days. The number of viable cells in each well was then measured with CellTiter-Glo® Luminescent Cell Viability Assay (Promega) to calculate the concentration of each test compound for 50% inhibition of cell proliferation (Sphere IC50 value; μmol/L).
The experiment of Test Example 1 was performed for the compounds of each Example.

U-251 = test: Sphere-forming ability of cultured cancer cell lines (Test Example 10); assay type: cell-based; conditions: Homo sapiens, 96 h; U-251 neuroblastoma cell line, 4 days
Method: (§1) The colon cancer cell lines SW480, DLD1, HCT15, HT29, SW948, LS174T, LS411N, SW620, LoVo, HCT116, Colo205, and Hs698T, the pancreatic cancer cell lines MiaPaca2, HPAFII, Capan2, and Panc1, the head and neck cancer cell line FaDu, the breast cancer cell lines HCC1954 and T47D, the bladder cancer cell line SW780, the liver cancer cell line HepG2, the neuroblastoma cell lines U87MG and U251, the lung cancer cell lines H460, H1437, and A549, the prostate cancer cell lines DU145 and PC3, the soft tissue tumor cell line HT1080, the testicular cancer cell line NTERA2, and the ovarian cancer cell line SKOV3 was suspended in the sphere formation medium (DMEM-F12 medium of Test Example 3 was used), and seeded in a 384-well plate with Ultra-Low Attachment surface (Corning) in an amount of 5×10^3-10×10^3 cells/well. The compound of Example 24 was then added into each well to adjust the final concentration to 10-10000 nmol/L. The plate was cultured at 37° C. and 5% carbon dioxide in an incubator for 4 days. After the culture, CellTiterGlo (Promega) was added into all of the wells, and the plate was allowed to stand at room temperature for 10 minutes to measure the intensity of luminescence of each well. The concentrations of each test compound for 50% inhibition of cell proliferation to the cell lines (Sphere IC50 value; μmol/L) was calculated from the measured intensity of luminescence. When each gene mutation in Table is reported, the mutation is represented by “+” (gene mutation information is cited from the ATCC website (https://www.atcc.org/en/Products/Cells_and_Microorganisms/Cell_Lines/Cell_lines_by_genetic_mutation.aspx), Cancer Cell Line Encyclopedia (https://portals.broadinstitute.org/ccle_legacy/home), Proc. Natl. Acad. Sci. USA 94 (1997) 10330-10334).

HCT-15 = test: as above; assay type: cell-based; conditions: Homo sapiens, 96 h; HCT-15 colon cancer cell line, 4 days
Method: as §1

NTERA-2 = test: as above; assay type: cell-based; conditions: NTERA2, 96 h; NTERA-2 testicular cancer cell line, 4 days
Method: as §1

LS411N = test: as above; assay type: cell-based; conditions: Homo sapiens, LS-411N, 96 h; LS411N colon cancer cell line, 4 days
Method: as §1

O=C(Nc1cn(Cc2cc(F)c(F)c(F)c2)cn1)c1cnc(CO)c(C(F)F)c1 [Example 24, 5-(difluoromethyl)-6-(hydroxymethyl)-N-[1-(3,4,5-trifluorobenzyl)-1H-imidazol-4-yl]nicotinamide]
pIC50 (HCT-116 cells): > 8.00
pIC50 (U-251): < 5.00
pIC50 (HCT-15): 8.10
pIC50 (NTERA-2): < 5.00
pIC50 (LS411N): 7.72
